# Laboratory results published in publication PMC10036551, “Genome mining unveils a class of ribosomal peptides with two amino termini” (Nature Communications, 2023).
# Residues, ends and D or L forms follow the SMILES beside them. *: point of attachment. X1 = C[C@@H](CN*)N(C)C
# Format: physicochemical
# Method: The HPLC-purified products were analyzed by high-resolution mass spectrometry and tandem mass spectrometry (HR-MS/MS). […] Considering the predicted functions of genes encoded by the mpa BGC, we proposed that Thr underwent conversion to Dmp. To evaluate this hypothesis, a sufficient amount of 1 was accumulated for structure determination, due to its higher post-purification yield than 2 and 3. […] NMR analyses (^1H, ^13C, ^1H-^1H COSY, ^1H-^13C HSQC and ^1H-^13C HMBC) were then conducted in HFIP-d2 and a substructure corresponding to Dmp was deduced.
structure (smiles),measurement,value
CC[C@H](C)[C@H](NC(=O)CNC(=O)[C@@H](NC(=O)[C@H](CC(C)C)NC(=O)[C@@H](NC(=O)[C@H](CC(C)C)NC(=O)[C@H](C)NC(=O)CNC(=O)[C@@H](NC(=O)[C@@H](NC(=O)CNC(=O)[C@H](CCC(N)=O)NC(=O)[C@H](Cc1ccc(O)cc1)NC(=O)[C@H](Cc1ccccc1)NC(=O)[C@H](CO)NC(=O)[C@H](CC(=O)O)NC(=O)[C@H](Cc1c[nH]c2ccccc12)NC(=O)[C@@H](N)CO)C(C)C)[C@@H](C)CC)C(C)C)[C@@H](C)CC)C(=O)NCC(=O)N[C@@H](C)C(=O)N[C@@H](C)C(=O)N[C@@H](C)C(=O)N[C@@H](C)C(=O)NC[C@H](C)N(C)C [compound 1] (H-SWDSFYQGVIGALVLIGIGAAAA-X1),solubility in commonly used NMR solvents,only sparingly soluble
same,solubility in hexafluoroisopropanol (HFIP),highly soluble
